This note sets out measurements from patent US6503919B1, “Compounds of 7-oxo-2,3,7,14-tetrahydro-1H-benzo[b]pyrano[3,2-h]acridin carboxylate” (Les Laboratoires Server, priority 1999, dated 2003).

Data set [1] has as its system P 388 (murine leukaemia). In words: Anti-tumour activity on the leukaemia P 388. Type of data set: in vivo. As to conditions: B6D2F1 mice, intraperitoneal route on day 1. Here is the method:
The line P 388 (murine leukaemia) was supplied by the National Cancer Institute (Frederick, USA). The tumour cells (10^6 cells) were inoculated on day 0 into the peritoneal cavity of female B6D2F1 mice (Iffa Credo, France). Six mice weighing from 18 to 20 g were used per experimental group. The compounds were administered by the intraperitoneal route on day 1.
The anti-tumour activity is expressed as % of T/C: [formula]

Data set [2] has as its system murine leukaemia L1210 and human colon carcinoma HT-29. Kind of data set: In vitro cytotoxicity, Microculture Tetrazolium Assay. The settings on record: 4 doubling periods: 48 hours (L1210) or 96 hours (HT-29); cell line not stated; read-out: IC50 (cytotoxic concentration that inhibits the proliferation of the treated cells by 50%). Type of data set: cell-based. Here is the method: The murine leukaemia L1210 and the human colon carcinoma HT-29 were used in vitro. The cells are cultured in complete RPMI 1640 culture medium containing 10% foetal calf serum, 2 mM glutamine, 50 U/ml of penicillin, 50 μg/ml of streptomycin and 10 mM Hepes, pH: 7.4. The cells are distributed in microplates and exposed to the cytotoxic compounds for 4 doubling periods, that is to say 48 hours (L1210) or 96 hours (HT-29). The number of viable cells is then quantified by a colorimetric assay, the Microculture Tetrazolium Assay (J. Carmichael et al., Cancer Res., 47, 936-942, (1987)). The results are expressed as IC50 values, which is the cytotoxic concentration that inhibits the proliferation of the treated cells by 50%.

pIC50: −log10 of the molar value.

Turning to `COc1cc2c(c3c1c(=O)c1ccccc1n3C)C=CC(C)(C)O2` [acronycine], the “anti-tumour activity in the P 388 model (in words)” value in data set [1] is listed as “only marginally active”. The melting point is the temperature, or range, at which the solid turns liquid. `COc1cc2c(c3c1c(=O)c1cc4ccccc4cc1n3C)[C@@H](OC(C)=O)[C@@H](OC(=O)CCC(=O)O)C(C)(C)O2` (racemic) [Example 1, (±)-cis-4-{[1-(Acetyloxy)-6-methoxy-3,3,14-trimethyl-7-oxo-2,3,7,14-tetrahydro-1H-benzo[b]pyrano[3,2-h]acridin-2-yl]oxy}-4-oxobutanoic acid]: the melting point was determined as 154 °C. Further, the pIC50 in data set [2] was 5.70. With `COc1cc2c(c3c1c(=O)c1cc4ccccc4cc1n3C)[C@@H](OC(=O)CCCC(=O)O)[C@@H](OC(=O)CCCC(=O)O)C(C)(C)O2` (relative stereo) [Example 22, cis-5-({1-[(4-Carboxybutanoyl)oxy]6-methoxy-3,3,14-trimethyl-7-oxo-2,3,7,14-tetrahydro-1H-benzo[b]pyrano[3,2-h]acridin-2-yl}oxy)-5-oxopentanoic acid], the melting point was 118 °C. `COc1cc2c(c3c1c(=O)c1cc4ccccc4cc1n3C)[C@@H](OC(=O)CCC(=O)O)[C@@H](OC(=O)CCC(=O)O)C(C)(C)O2` (racemic) [Example 7, (±)-cis-4-({1-[(3-Carboxypropanoyl)oxy]-6-methoxy-3,3,14-trimethyl-7-oxo-2,3,7,14-tetrahydro-1H-benzo[b]pyrano[3,2-h]acridin-2-yl}oxy)-4-oxobutanoic acid] showed a melting point of 128 °C. Further, the pIC50 in data set [2] is 5.64. In the case of `COc1cc2c(c3c1c(=O)c1cc4ccccc4cc1n3C)[C@@H](OC(C)=O)[C@@H](OC(=O)CCCC(=O)O)C(C)(C)O2` (racemic) [Example 3, (±)-cis-5-{[1-(Acetyloxy)-6-methoxy-3,3,14-trimethyl-7-oxo-2,3,7,14-tetrahydro-1H-benzo[b]pyrano[3,2-h]acridin-2-yl]oxy}-5-oxopentanoic acid], the melting point was 155 °C.
